26 compounds from patent US7273866B2, “2-aryl thiazole derivatives as KCNQ modulators” (Bristol-Myers Squibb Company, priority 2002, dated 2007) can be followed below.

The structures appear in SMILES notation. A value given as a limit tells only on which side of the number the result lay.

In this assay the test system is KCNQ channels. The assay can be described thus: Thallium flux assay for KCNQ channel openers. Format: cell-based. As to conditions: HEK-293 cells stably transfected with a KCNQ family member; for Min. conc. response: minimal active concentration: lowest concentration giving signal amplitude >= four standard deviations of negative controls; for EC50: thallium flux, 10 point concentration series. The protocol: Thallium Flux Assay for KCNQ channel Openers. The thallium assay is a modification of that published by Weaver and is referenced in its entirety (Weaver, C. D. WO 02/31508, 2002).
Approximately 20,000 cells/well of an HEK-293 cell line stably transfected with one of the members of the KCNQ family were plated into clear-bottom, black-walled, poly-D-lysine coated, 384 well assay plates in 20 μl/well of low chloride plating medium. Low chloride plating medium was composed of the following: sodium gluconate, 109 mM; potassium gluconate, 5.4 mM; hemi-calcium gluconate, 3.6 mM; magnesium sulfate, 0.8 mM; sodium bicarbonate, 26.2 mM; sodium phosphate monobasic, 1.2 mM; glutamine, 2 mM; glucose, 5 mM; 4-(2-hydroxyethyl)-1-piperazineethanesulfonic acid (HEPES) (pH 7.3) 10 mM, MEM vitamin solution (10× concentration of vitamins, Gibco/LifeTechnologies 11120-052) and MEM amino acid solution (1× concentration of amino acids, Gibco/LifeTechnologies 11130-051).
Following overnight incubation in a 5% CO2 incubator at 37° C., the cells in the plates were loaded with 20 μl/well of a dye loading solution containing the commercially available thallium-sensitive fluorescent dye BTC-AM, the acetomethoxy ester of BTC (see U.S. Pat. No. 5,501,980) (2 μM) and pluronic acid F-127 (Molecular Probes P 6867) (0.02% w/v) in chloride free assay buffer. Chloride free assay buffer was composed of the following: sodium gluconate, 140 mM; potassium gluconate, 2.5 mM; hemi-calcium gluconate, 6 mM; hemi-magnesium gluconate, 2 mM; glucose, 5 mM; HEPES (pH 7.3), 10 mM.
Following incubation in the dye loading solution for from 45-90 min at room temperature, the dye loading solution was removed by aspiration and replaced with 40 μl/well of chloride free assay buffer.
Prior to addition to cell plates, test compound and standard compounds were dissolved in DMSO to 3 mM concentration. Compounds were then diluted from the 3 mM stock to 100-fold over the final assay concentration in DMSO. Finally, compounds in DMSO were diluted from 100-fold over the final assay concentration to 5-fold over the final assay concentration in chloride free assay buffer.
Ten μl/well of compounds at 5-fold over the final assay concentration were then added to the cell plates. This represents a 1:5 dilution, yielding the final test concentration. The wells used for test compounds were A1-P20. Wells A21-P22 contained a standard opener and a maximally efficacious concentration (positive control). Wells A23-P24 contained chloride free assay buffer containing 1% DMSO (negative control).
Following addition of test compounds, the plates were loaded onto the Molecular Devices FLIPR. The 488 nm line of the argon laser was used to excite the BTC and the emission filter was a 540(+/−30) nm. Images were collected at 1 Hz. Ten seconds of baseline were collected and then the FLIPR was used to add 13 μl/well of a stimulus buffer composed of 7.5 mM Tl2SO4 in chloride free assay buffer. Images were collected for an additional 60 seconds.
For data analysis, the amplitude of the average of the negative controls was subtracted from all wells. The amplitudes of the test compounds were then compared to the value of four standard deviations of the negative control wells. The lowest concentration of a test compound sufficient to generate a signal amplitude greater than or equal to four standard deviations from the amplitude of the negative controls was defined as the minimal active concentration.
For generating EC50 values, compounds were serially diluted in 1:3 volume increments to produce a 10 point concentration series. EC50 values were calculated by fitting the resulting amplitudes to a single-site logistic equation. EC50 was defined as the concentration of test compound required to yield 50% of the maximal response. Maximal response (Maximal opening) was the largest signal amplitude divided by the negative control amplitude generated by any concentration of a test compound. […]

For orientation: EC50 means the concentration needed to bring the measured effect to its halfway point. High values mean lower potency in that assay, low ones higher potency in that assay. For the compound `C[C@H](NC(=O)c1sc(-c2ncccc2CN2CCOCC2)nc1C(F)(F)F)c1cccc(-c2cccnc2)c1` [Example 67, (S)-2-[3-(4-morpholinylmethyl)pyridin-2-yl]-4-(trifluoromethyl)-N-[1-[3-(3-pyridinyl)phenyl]ethyl]-5-thiazolecarboxamide], the Min. conc. response is 30 µM and the EC50 lay in the range of 50 to 1000 nM.
Compound `CCN(Cc1ccncc1)Cc1ccccc1-c1nc(C(F)(F)F)c(C(=O)NC(C)c2cccc(OC(F)(F)F)c2)s1` (stereo not drawn) [Example 113] displayed a Min. conc. response of 0.3 µM.
Regarding `C[C@H](NC(=O)c1sc(-c2ccccc2Cl)nc1C(F)(F)F)c1cccc(N2CCOCC2)c1` [Example 52, 2-(2-chlorophenyl)-4-(trifluoromethyl)-N-[1-[3-(4-morpholinyl)phenyl]ethyl]-5-thiazolecarboxamide], the Min. conc. response amounted to 3 µM and the EC50 lay in the range of 50 to 1000 nM.
Regarding `COc1cccc(-c2nc(C(F)(F)F)c(C(=O)NCc3ccccn3)s2)c1` [Example 88], the Min. conc. response was determined as 30 µM.
For `CC(NC(=O)c1sc(-c2ccc3c(c2)OCO3)nc1C(F)(F)F)c1cccc(C(F)(F)F)c1` (stereo not drawn) [Example 87], the Min. conc. response came to 0.3 µM.
`C[C@H](NC(=O)c1sc(-c2ccccc2CN2CCOCC2)nc1C(F)(F)F)c1cccc(N2CCOCC2)c1` [Example 110] had a Min. conc. response of 3 µM.
For the compound `COc1ccc(-c2nc(C(F)(F)F)c(C(=O)N[C@@H](C)c3cccc(N4CCOCC4)c3)s2)c(OC)c1` [Example 31, 2-(2,4-dimethoxyphenyl)-4-(trifluoromethyl)-N-[1-[3-(4-morpholinyl)phenyl]ethyl]-5-thiazolecarboxamide], the Min. conc. response worked out at 3 µM and the EC50 fell in the range of 1000 to 20000 nM.
In the case of `CCN(CC)CCOc1ccccc1-c1nc(C(F)(F)F)c(C(=O)N[C@@H](C)c2cccc(N3CCOCC3)c2)s1` [Example 100], the Min. conc. response amounted to 30 µM.
`COc1ccccc1-c1nc(C(F)(F)F)c(C(=O)NC(C)c2cccc(N3CCCCC3)c2)s1` (stereo not drawn) [Example 32, 2-(2-methoxyphenyl)-4-(trifluoromethyl)-N-[1-[3-(1-piperidinyl)phenyl]ethyl]-5-thiazolecarboxamide] registered a Min. conc. response of 0.3 µM and an EC50 of less than 50 nM.
Regarding `CCN(CC)Cc1ccccc1-c1nc(C(F)(F)F)c(C(=O)N[C@@H](C)c2cccc(OC)c2)s1` [Example 82], the Min. conc. response was 0.3 µM and the EC50 fell in the range of 50 to 1000 nM.
For `C[C@@H]1CN(c2cccc([C@H](C)NC(=O)c3sc(-c4ncccc4CN4CCOCC4)nc3C(F)(F)F)c2)C[C@H](C)O1` [Example 64, (S)-2-[3-(4-morpholinylmethyl)pyridin-2-yl]-4-(trifluoromethyl)-N-[1-[3-(2,6-dimethyl-4-morpholinyl)phenyl]ethyl]-5-thiazolecarboxamide], in that order: 10 µM and 50 to 1000 nM.
For `CC(NC(=O)c1sc(-c2ccccc2F)nc1C(F)(F)F)c1cccc(N(C)Cc2ccco2)c1` (stereo not drawn) [Example 35, 2-(2-fluorophenyl)-4-(trifluoromethyl)-N-[1-[3-[(2-furanylmethyl)methylamino]phenyl]ethyl]-5-thiazolecarboxamide] the same measures were 0.3 µM and 50 to 1000 nM.
Turning to `COc1ccccc1-c1nc(C(F)(F)F)c(C(=O)NC(C)c2cccc(N(C)Cc3ccco3)c2)s1` (stereo not drawn) [Example 34, 2-(2-methoxyphenyl)-4-(trifluoromethyl)-N-[1-[3-[(2-furanylmethyl)methylamino]phenyl]ethyl]-5-thiazolecarboxamide], the Min. conc. response came to 0.3 µM and the EC50 is less than 50 nM.
For `CCN(Cc1ccncc1)Cc1ccccc1-c1nc(C(F)(F)F)c(C(=O)NCc2cccc(OC(F)(F)F)c2)s1` [Example 59], the Min. conc. response worked out at 3 µM and the EC50 is 50 to 1000 nM.
For `COc1ccccc1-c1nc(C(F)(F)F)c(C(=O)NC(C)c2cccc(OC(F)(F)F)c2)s1` (stereo not drawn) [Example 18, 2-(2-methoxyphenyl)-4-(trifluoromethyl)-N-[1-[3-(trifluoromethoxy)phenyl]ethyl]-5-thiazolecarboxamide], in that order: 0.3 µM and less than 50 nM.
As to `COc1cccc([C@H](C)NC(=O)c2sc(-c3cc(F)ccc3OC)nc2C(F)(F)F)c1` [Example 48, (S)-2-(5-fluoro-2-methoxyphenyl)-4-(trifluoromethyl)-N-[1-[3-(methoxy)phenyl]ethyl]-5-thiazolecarboxamide], the Min. conc. response is 3 µM and the EC50 fell in the range of 50 to 1000 nM.
As for `CC(NC(=O)c1sc(-c2ccccc2CN(C)C)nc1C(F)(F)F)c1cccc(C(F)(F)F)c1` (stereo not drawn) [Example 105], the Min. conc. response came out at 30 µM.
`CCN(CC)Cc1cccc(C(C)NC(=O)c2sc(-c3cccc4ccccc34)nc2C(F)(F)F)c1` (stereo not drawn) [Example 38, 2-(1-naphthyl)-4-(trifluoromethyl)-N-[1-[3-[(diethylamino)methyl]phenyl]ethyl]-5-thiazolecarboxamide] showed a Min. conc. response of 30 µM and an EC50 of 1000 to 20000 nM.
In turn, `COc1ccc(F)cc1-c1nc(C(F)(F)F)c(C(=O)NC(C)c2cccc(C(F)(F)F)c2)s1` (stereo not drawn) [Example 43, 2-(5-fluoro-2-methoxyphenyl)-4-(trifluoromethyl)-N-[1-[3-(trifluoromethyl)phenyl]ethyl]-5-thiazolecarboxamide] gave a Min. conc. response of 3 µM and an EC50 of 50 to 1000 nM.
Compound `CC(NC(=O)c1sc(-c2cccc(F)c2)nc1C(F)(F)F)c1cccc(C(F)(F)F)c1` (stereo not drawn) [Example 92] gave a Min. conc. response of 3 µM.
`COc1ccc(F)cc1-c1nc(C(F)(F)F)c(C(=O)N[C@@H](C)c2cccc(N3CCOCC3)c2)s1` [Example 47, (S)-2-(5-fluoro-2-methoxyphenyl)-4-(trifluoromethyl)-N-[1-[3-(4-morpholinyl)phenyl]ethyl]-5-thiazolecarboxamide] showed a Min. conc. response of 3 µM and an EC50 of 1000 to 20000 nM.
In turn, `COc1cccc(C(C)NC(=O)c2sc(-c3ccccc3N3CCOCC3)nc2C(F)(F)F)c1` (stereo not drawn) [Example 55, 2-[2-(4-morpholinyl)phenyl]-4-(trifluoromethyl)-N-[1-[3-(methoxy)phenyl]ethyl]-5-thiazolecarboxamide] registered a Min. conc. response of 0.3 µM and an EC50 of 1000 to 20000 nM.
Compound `CCN(Cc1ccncc1)Cc1cccnc1-c1nc(C(F)(F)F)c(C(=O)N[C@@H](C)c2cccc(N3C[C@@H](C)O[C@@H](C)C3)c2)s1` [Example 66] yielded a Min. conc. response of 3 µM and an EC50 of 50 to 1000 nM.
With `CC(NC(=O)c1sc(-c2ccccc2F)nc1C(F)(F)F)c1cccc(N(C)C)c1` (stereo not drawn) [Example 26, 2-(2-fluorophenyl)-4-(trifluoromethyl)-N-[1-[3-(dimethylamino)phenyl]ethyl]-5-thiazolecarboxamide], the Min. conc. response came to 3 µM and the EC50 lay in the range of 50 to 1000 nM.
In turn, `COc1ccccc1-c1nc(C(F)(F)F)c(C(=O)NC(C)c2cccc(NC(=N)N)c2)s1` (stereo not drawn) [Example 40, 2-(2-methoxyphenyl)-4-(trifluoromethyl)-N-[1-[3-(guanidinyl)phenyl]ethyl]-5-thiazolecarboxamide] displayed a Min. conc. response of 30 µM and an EC50 of 1000 to 20000 nM.
`CC(NC(=O)c1sc(-c2ccccc2F)nc1C(F)(F)F)c1cccc(C(F)(F)F)c1` (stereo not drawn) [Example 22, 2-(2-fluorophenyl)-4-(trifluoromethyl)-N-[1-[3-(trifluoromethyl)phenyl]ethyl]-5-thiazolecarboxamide] registered a Min. conc. response of 0.3 µM and an EC50 of less than 50 nM.
